Experimental data published in ChEMBL document CHEMBL1201862, “PubChem BioAssay data set” (2004).
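These data come from cells grown in 96-well plates and exposed to compound for 48 hours at five concentrations. Here, GI50 denotes the concentration required for 50% inhibition of growth.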 Calls of active or inactive are those of the source. Cut-off read from the data, not from the text of the source: active = GI50 up to about 1.1 µM and inactive = higher.

Key:
Assay in all cases: growth of human tumour cells (NCI), 48 h
MDA-N = tested on: MDA-N
NCI-H23 = tested on: NCI-H23
EKVX = tested on: EKVX
MDA-MB-435 = tested on: MDA-MB-435
786-0 = tested on: 786-0
K562 = tested on: K562
HOP-62 = tested on: HOP-62
Malme-3M = tested on: Malme-3M
SK-MEL-2 = tested on: SK-MEL-2
RXF 393 = tested on: RXF 393
COLO 205 = tested on: COLO 205
M14 = tested on: M14
MDA-MB-231 = tested on: MDA-MB-231
A498 = tested on: A498
UACC-62 = tested on: UACC-62
OVCAR-4 = tested on: OVCAR-4
ACHN = tested on: ACHN
KM12 = tested on: KM12
UACC-257 = tested on: UACC-257

Measured: GI50

CC(=O)CN/C(C)=N/Nc1ccc([N+](=O)[O-])cc1[N+](=O)[O-]
inactive: MDA-N > 100 µM | NCI-H23 > 100 µM | EKVX 52.2 µM | MDA-MB-435 > 100 µM | 786-0 > 100 µM | K562 5.2 µM | HOP-62 > 100 µM | Malme-3M 70.5 µM | SK-MEL-2 > 100 µM | RXF 393 > 100 µM | COLO 205 > 100 µM | M14 > 100 µM | MDA-MB-231 > 100 µM | A498 78.3 µM | UACC-62 80.9 µM | OVCAR-4 > 100 µM | ACHN 94.4 µM

c1csc(-c2cc(-c3ccsc3)c(-c3cccs3)s2)c1
inactive: MDA-N 32 µM | NCI-H23 58.7 µM | EKVX 16 µM | MDA-MB-435 39.4 µM | 786-0 > 100 µM | K562 69.8 µM | HOP-62 > 100 µM | Malme-3M 59.2 µM | RXF 393 49.8 µM | COLO 205 23.1 µM | M14 56.1 µM | MDA-MB-231 29.8 µM | A498 > 100 µM | KM12 31.8 µM | UACC-62 48.4 µM | UACC-257 56.2 µM | OVCAR-4 > 100 µM | ACHN 99.5 µM

Cc1csc(NC23CC4CC(CC(C4)C2)C3)[n+]1C(P(=O)([O-])O)P(=O)(O)O (stereo not given)
inactive: MDA-N > 100 µM | NCI-H23 > 100 µM | EKVX > 100 µM | MDA-MB-435 > 100 µM | 786-0 > 100 µM | K562 > 100 µM | HOP-62 > 100 µM | Malme-3M > 100 µM | RXF 393 > 100 µM | COLO 205 > 100 µM | M14 > 100 µM | MDA-MB-231 > 100 µM | A498 > 100 µM | KM12 > 100 µM | UACC-62 > 100 µM | UACC-257 > 100 µM | ACHN > 100 µM

CCc1cccc(C(C)C)c1NC(=O)C(=O)Nn1c(S)nc2ccccc2c1=O
inactive: MDA-N > 100 µM | NCI-H23 > 100 µM | EKVX 37.8 µM | MDA-MB-435 > 100 µM | 786-0 > 100 µM | K562 > 100 µM | HOP-62 > 100 µM | Malme-3M > 100 µM | SK-MEL-2 > 100 µM | RXF 393 > 100 µM | M14 > 100 µM | MDA-MB-231 76.2 µM | A498 > 100 µM | KM12 > 100 µM | UACC-62 > 100 µM | UACC-257 > 100 µM | OVCAR-4 > 100 µM | ACHN > 100 µM
